Experimental data from patent US6420630B1, “Methods for tissue culturing and transforming elite inbreds of Zea mays L” (Stine Biotechnology, priority 1998, dated 2002).

Tests used:
[1] = system: immature embryos of Stine inbred 963; assay: Type II callus initiation from cultured immature embryos (embryos responding); assay type: cell-based, Zea mays L.; settings: sugar at 10 g/l in combination with 20 g/l sucrose, N6A medium
Method: Plants of the elite corn inbred Stine 963 were grown under controlled conditions, either in a grow room or in a greenhouse. Plants were exposed throughout growth to a 16 h photoperiod with a daytime temperature of around 30° C. and a nighttime temperature of around 25° C. Plants were selfed and after approximately 10 days ears were harvested. At this time the immature embryos were on average between 1.0 and 2.0 mm in length. Usually the ears were then placed at 4° for two days prior to immature embryo excision. The response on standard […] media (Table 1) for inducing Type II callus was variable and appeared to be dependent on the physiological state of the donor plant. The frequency of Type II callus ranged from 0% up to 95%, with an average of around 40%. Immature embryos were excised with a view to using them as targets for Agrobacterium-mediated DNA delivery. For this work a reproducible and high frequency response is required and improvement in these aspects was therefore desirable. The protocol used for introduction of DNA mediated by Agrobacterium was based on that described by Hei and Komari (1997). The co-cultivation medium in this protocol (LSAS-Table 1) contains glucose, intended presumably as a carbon source for Agrobacterium. After close observation of immature embryos on LSAS medium it was thought worthwhile to check for the effects of glucose on culture initiation and subsequent development. 10 g/l of glucose was therefore added to […] medium. This medium was subsequently referred to as […] (Table 1). […] Various other sugars were tested in this regard (see Table 3) and some are capable of supporting an increased rate of Type II callus initiation (especially maltose, lactose, sorbitol and mannitol). None of those tested, however, were as efficient as glucose in stimulating Type II callus formation on […] medium. All sugars were tested at 10 g/l in combination with 20 g/l sucrose.

Agrobacterium = assay: Control of Agrobacterium growth on culture media after co-cultivation; assay type: cell-based, Agrobacterium tumefaciens; settings: for control of Agrobacterium growth: first 19 day culture period after co-cultivation
Source text: Agrobacterium strain LBA 4404 harboring “super binary” vectors as described in U.S. patent Hei and Komari (1997) was used in corn transformation experiments. […] The gus expression cassette contains an intron in the N-terminal region of the gus gene which prevents expression in bacteria, but upon expression in plant cells the intron is spliced out and Gus activity is achieved (Ohta et al., 1990; Ishida et al., 1996). Agrobacterium containing “super binary” vectors were stored in glycerol stocks using acidified glycerol. Glycerol was acidified by adding 15 drops of 1 M HCl to one liter of glycerol (Sigma G-9012). Final glycerol concentration of stocks was 15 to 20% and stocks were frozen at minus 86° C. When glycerol stocks were used as the source for transformation experiments, Agrobacterium was made ready for transformation experiments by removing a few flakes of frozen culture with a sterile loop, streaking it out on YP medium (5 g/l yeast extract, 10 g/l peptone, 5 g/l NaCl, and 15 g/l agar) containing 50 mg/l spectinomycin, and incubating it for one or two days at 28° C. When glycerol stocks were not used as the source, Agrobacterium maintained on YP plus spectinomycin at 4° C. was used to initiate new cultures of Agrobacterium that were grown as described above.
Therefore, a lower level of cefotaxime was tested in the presence of silver nitrate to see if embryo response and subsequent clone recovery could be improved. […] The clones were then transferred to DN62B (Table 4) for growth and further selection prior to regeneration.

O=C[C@H](O)[C@@H](O)[C@@H](O)[C@H](O)CO [Galactose]
Embryo Response [1]: <30%

O=C[C@H](O)[C@@H](O)[C@H](O)CO [Xylose]
Embryo Response [1]: <50%

O=[N+]([O-])[O-].[Ag+] [silver nitrate]
Agrobacterium growth (Agrobacterium; media containing silver nitrate): inhibited

OC[C@H]1O[C@H](OCC2O[C@@H](O)[C@H](O)[C@@H](O)[C@@H]2O)[C@H](O)[C@@H](O)[C@H]1O (stereo partly shown) [Mellibiose]
Embryo Response [1]: <50%

O=C(CO)[C@@H](O)[C@H](O)[C@H](O)CO [Fructose]
Embryo Response [1]: <50%

OC[C@H]1O[C@H](OC[C@H]2O[C@H](O[C@]3(CO)O[C@H](CO)[C@@H](O)[C@@H]3O)[C@H](O)[C@@H](O)[C@@H]2O)[C@H](O)[C@@H](O)[C@H]1O [Raffinose]
Embryo Response [1]: <50%

O=C[C@H](O)[C@@H](O)[C@H](O[C@@H]1O[C@H](CO)[C@@H](O)[C@H](O)[C@H]1O)[C@H](O)CO [Cellobiose]
Embryo Response [1]: <50%

CO/N=C(\C(=O)N[C@@H]1C(=O)N2C(C(=O)O)=C(COC(C)=O)CS[C@H]12)c1csc(N)n1 [cefotaxime]
control of Agrobacterium growth (Agrobacterium; 10 mg/l cefotaxime in presence of silver nitrate): not | control of Agrobacterium growth (Agrobacterium; 50 mg/l cefotaxime in presence of silver nitrate): Adequate control of Agrobacterium growth

OC[C@H]1O[C@H](O[C@H]2O[C@H](CO)[C@@H](O)[C@H](O)[C@H]2O)[C@H](O)[C@@H](O)[C@@H]1O [Trehalose]
Embryo Response [1]: <50%
